# Experimental data: ChEMBL document CHEMBL3352623, “Improved antiproliferative activity of 1,3,4-thiadiazole-containing histone deacetylase (HDAC) inhibitors by introduction of the heteroaromatic surface recognition motif” (Bioorg Med Chem, 2014)
# pIC50: −log10 of the molar value.
# Tested on: MDA-MB-231
# Assay: Antiproliferative activity against human MDA-MB-231 cells after 48 hrs by MTT assay
# Type: functional, cell-based
# Settings: MDA-MB-231, 48 h
row,pIC50,Compound
1,4.93,O=C(CCCCCC(=O)Nc1nnc(-c2cccnc2)s1)NO
2,4.40,O=C(CCCCCC(=O)Nc1nnc(-c2ccncc2)s1)NO
3,4.82,O=C(CCCCCC(=O)Nc1nnc(-c2cccs2)s1)NO
4,5.73,O=C(CCCCCCC(=O)Nc1nnc(-c2cccnc2)s1)NO
5,5.33,O=C(CCCCCCC(=O)Nc1nnc(-c2ccncc2)s1)NO
6,5.92,O=C(CCCCCCC(=O)Nc1nnc(-c2cccs2)s1)NO
7,5.64,O=C(CCCCCCC(=O)Nc1ccccc1)NO [VORINOSTAT]

# Tested on: K562
# Assay: Antiproliferative activity against human K562 cells after 48 hrs by MTT assay
# Type: functional, cell-based
# Settings: K562, 48 h
row,pIC50,Compound
1,< 4.22,O=C(CCCCCC(=O)Nc1nnc(-c2cccnc2)s1)NO
2,< 4.22,O=C(CCCCCC(=O)Nc1nnc(-c2ccncc2)s1)NO
3,< 4.22,O=C(CCCCCC(=O)Nc1nnc(-c2cccs2)s1)NO
4,5.36,O=C(CCCCCCC(=O)Nc1nnc(-c2cccnc2)s1)NO
5,5.38,O=C(CCCCCCC(=O)Nc1nnc(-c2ccncc2)s1)NO
6,5.81,O=C(CCCCCCC(=O)Nc1nnc(-c2cccs2)s1)NO

# Tested on: not listed separately
# Assay: Antiproliferative activity against human PC3 cells after 48 hrs by MTT assay
# Type: functional, cell-based
# Settings: PC-3, 48 h
row,Compound,pIC50
1,O=C(CCCCCC(=O)Nc1nnc(-c2cccnc2)s1)NO,4.26
2,O=C(CCCCCC(=O)Nc1nnc(-c2ccncc2)s1)NO,< 4.22
3,O=C(CCCCCC(=O)Nc1nnc(-c2cccs2)s1)NO,< 4.22
4,O=C(CCCCCCC(=O)Nc1nnc(-c2cccnc2)s1)NO,5.10
5,O=C(CCCCCCC(=O)Nc1nnc(-c2ccncc2)s1)NO,5.11
6,O=C(CCCCCCC(=O)Nc1nnc(-c2cccs2)s1)NO,5.44

# Molecular target: Histone deacetylase (HDAC1 and HDAC2) (Homo sapiens, UniProt Q13547+Q92769)
# Assay: Inhibition of HDAC1/HDAC2 in human HeLa cell extract incubated for 5 mins prior to substrate addition measured after 30 mins by microtitre plate reader analysis
# Type: cell-based
# Settings: not given
row,IC50,Compound
1,1285 nM,O=C(CCCCCC(=O)Nc1nnc(-c2ccc(Br)cc2)s1)NO
2,> 5000 nM,O=C(CCCCCC(=O)Nc1nnc(-c2ccc(N3CCOCC3)cc2)s1)NO
3,> 5000 nM,CN(C)c1ccc(-c2nnc(NC(=O)CCCCCC(=O)NO)s2)cc1
4,437 nM,COc1ccc(-c2nnc(NC(=O)CCCCCC(=O)NO)s2)cc1
5,487 nM,COc1ccc(-c2nnc(NC(=O)CCCCCC(=O)NO)s2)cc1OC
6,422 nM,Cc1ccc(-c2nnc(NC(=O)CCCCCC(=O)NO)s2)cc1
7,> 5000 nM,O=C(CCCCCC(=O)Nc1nnc(-c2ccc(-c3ccccc3)cc2)s1)NO
8,741 nM,O=C(CCCCCC(=O)Nc1nnc(-c2ccc(F)cc2)s1)NO
9,988 nM,O=C(CCCCCC(=O)Nc1nnc(-c2ccc(Cl)cc2)s1)NO
10,847 nM,O=C(CCCCCC(=O)Nc1nnc(-c2cccc(Cl)c2)s1)NO
11,507 nM,O=C(CCCCCC(=O)Nc1nnc(-c2ccccc2Cl)s1)NO
12,875 nM,O=C(CCCCCC(=O)Nc1nnc(-c2ccc(I)cc2)s1)NO
13,721 nM,CS(=O)(=O)c1ccc(-c2nnc(NC(=O)CCCCCC(=O)NO)s2)cc1
14,709 nM,O=C(CCCCCC(=O)Nc1nnc(-c2ccc([N+](=O)[O-])cc2)s1)NO
15,1154 nM,O=C(CCCCCC(=O)Nc1nnc(-c2ccc(C(F)(F)F)cc2)s1)NO
16,> 5000 nM,O=C(CCCCCCC(=O)Nc1nnc(-c2ccc(N3CCOCC3)cc2)s1)NO
17,> 5000 nM,O=C(CCCCCCC(=O)Nc1nnc(-c2ccc(-c3ccccc3)cc2)s1)NO

row,IC50,Compound
1,1215 nM,O=C(CCCCCCC(=O)Nc1nnc(-c2cccc(Br)c2)s1)NO
2,526 nM,O=C(CCCCCCC(=O)Nc1nnc(-c2ccccc2Br)s1)NO
3,> 5000 nM,O=C(CCCCCCC(=O)Nc1nnc(-c2ccc(I)cc2)s1)NO
4,598 nM,CS(=O)(=O)c1ccc(-c2nnc(NC(=O)CCCCCCC(=O)NO)s2)cc1
5,> 5000 nM,O=C(CCCCCCC(=O)Nc1nnc(-c2ccc(C(F)(F)F)cc2)s1)NO
6,3186 nM,O=C(CCCCCC(=O)Nc1nnc(-c2cccc3ccccc23)s1)NO
7,> 5000 nM,O=C(CCCCCC(=O)Nc1nnc(-c2ccc3ccccc3c2)s1)NO
8,325 nM,O=C(CCCCCC(=O)Nc1nnc(-c2cccnc2)s1)NO
9,411 nM,O=C(CCCCCC(=O)Nc1nnc(-c2ccncc2)s1)NO
10,434 nM,O=C(CCCCCC(=O)Nc1nnc(-c2ccco2)s1)NO
11,411 nM,O=C(CCCCCC(=O)Nc1nnc(-c2cccs2)s1)NO
12,> 5000 nM,O=C(CCCCCCC(=O)Nc1nnc(-c2cccc3ccccc23)s1)NO
13,> 5000 nM,O=C(CCCCCCC(=O)Nc1nnc(-c2ccc3ccccc3c2)s1)NO
14,386 nM,O=C(CCCCCCC(=O)Nc1nnc(-c2cccnc2)s1)NO
15,286 nM,O=C(CCCCCCC(=O)Nc1nnc(-c2ccncc2)s1)NO
16,436 nM,O=C(CCCCCCC(=O)Nc1nnc(-c2ccco2)s1)NO
17,310 nM,O=C(CCCCCCC(=O)Nc1nnc(-c2cccs2)s1)NO
